Reference: publication PMC3506555, “[^11C]phenytoin revisited: synthesis by [^11C]CO carbonylation and first evaluation as a P-gp tracer in rats” (EJNMMI Research, 2012)

What was measured:
[1] = system: P-gp; parameters: method as in PMID 14642487, PMID 16857389, PMID 15961982, PMID 18783208, PMID 19647170; conditions: rat and human brain; cited from earlier work
[2] = Observation of animals after probenecid administration; assay type: in vivo; conditions: probenecid 150 mg·kg^−1 i.v., during 30 to 40 min after administration

Structure (SMILES)	Brain-to-plasma equilibrium concentration ratio (VT) at baseline [1]	Breathing frequency after administration [2]
[11CH3]NC(=O)C(CCN1CCC(O)(c2ccc(Cl)cc2)CC1)(c1ccccc1)c1ccccc1 [^11C]desmethyl loperamide]	about 1	–
COC(=O)c1cnc2n1CCc1ccccc1C2=C1CCN(CCc2ccc(OCc3ccc4ccccc4n3)cc2)CC1 [^11C]laniquidar]	about 1	–
COc1cc2c(cc1OC)CN(CCc1ccc(NC(=O)c3cc(O[11CH3])c(OC)cc3NC(=O)c3cnc4ccccc4c3)cc1)CC2 [^11C]tariquidar]	about 1	–
CCCN(CCC)S(=O)(=O)c1ccc(C(=O)O)cc1 [probenecid]	–	severely depressed breathing frequency
